Assay [1] relates to PDE3A1. Description: cAMP-hydrolytic activity of FLAG-tagged PDE3A1 in transfected HEK293 cells. The note with it: 1 mM dBcAMP 1 hour; for cAMP-hydrolytic activity of PDE3A1: 1 μM isoproterenol 90 sec, 50 μM 8-pCPT-2′-O-Me-cAMP or 0.1 mM sodium butyrate 1 hour. The assay is classed as cell-based, human. The method, then:
FIG. 3 Illustrates an illustrative effect of d8-pCPT-2′-O-Me-cAMP and sodium butyrate on PDE3A1 activity, wherein HEK293 cells were transfected with FLAG-tagged PDE3A and treated with 50 μM d8-pCPT-2′-O-Me-cAMP, 0.1 mM sodium butyrate or 1 mM dBcAMP for 1 hour. PDE3A activity was assayed as described;
(§1) FIGS. 9A-9B illustrate stimulation of PDE3A2 and PDE3A1 activity in response to PKC and PKA activation. (A) HEK293 cells were transfected with FLAG-tagged PDE3A2, with and without alanine substitution at S428, and treated with 10 ng/ml PMA for 15 min or 1 mM dBcAMP for 1 hour. (B) HEK293 cells were transfected with FLAG-tagged PDE3A1, with and without alanine substitutions at S312 and S428, and treated with 1 μM isoproterenol for 90 sec, 10 ng/ml PMA for 15 min or 1 mM dBcAMP for 1 hour. PDE3 activity was assayed as described. PDE3A constructs were immunoprecipitated with anti-FLAG antibody, and phosphorylation was analyzed by immunoblotting with anti-FLAG and phosphospecific antibodies as indicated; and
(§2) PKA and PKC modulate the catalytic activity of PDE3A and PDE3A2 through distinct molecular mechanisms: In view of the reported effects of PKA and PKC on PDE3A activity^3-6, we examined the effects of phosphorylation at S312 and S428 on the cAMP-hydrolytic activity of PDE3A isoforms in transfected HEK293 cells. […] This stimulation was not observed when cells were treated with either the EPAC activator 8-pCPT-2′-O-Me-cAMP or with sodium butyrate (FIG. 3). […] To determine whether similar consequences of phosphorylation occur in the case of PDE3A isoforms, protein extracts from transfected HEK293 cells, untreated or exposed to either isoproterenol or PMA, were analyzed by gel-filtration chromatography, measurement of catalytic activity and Western blotting. Under basal conditions, PDE3 activity and protein was recovered in a biphasic pattern in low- and high-molecular-weight peaks (FIG. 5).
(§3) Measurement of cAMP-hydrolytic activity: cAMP-hydrolytic activity was quantified at 30° C. by the two-step snake-venom method with [^3H]cAMP (1 μM) as substrate; PDE3 activity was quantified by measuring activity in the absence and presence of cilostamide. The amount of protein used per assay and the incubation times were adjusted to ensure that no more than 20% of the total cyclic nucleotide was hydrolyzed during the assay.
(§4) Treatment of cells with pharmacologic agents: HEK293 cells expressing the human PDE3A constructs were incubated at 37° C. in serum-free medium containing isoproterenol for 90 sec or PMA for 15 min. At the end of the incubation period, cells were solubilized in lysis buffer containing 20 mM MOPS pH 7.2, 15 mM MgCl2, 0.5% NP40, 150 mM NaCl, 5 mM EDTA, protease inhibitor cocktail and phosphatase inhibitor cocktail 3. Cellular debris was removed by centrifugation (1,000×g; 5 min), and cleared supernatants were used in the experiments.

Assay [2] concerns PDE3A2. Description: Phosphorylation and 14-3-3 binding of FLAG-tagged PDE3A2 in transfected HEK293 cells. The assay is classed as cell-based, human. To be noted: PMA 10 ng/ml 15 min; for phosphorylation of PDE3A2 at S312 / phosphorylation of PDE3A2 at S428: isoproterenol 90 sec, dibutyryl cAMP 1 mM 1 hour, phosphospecific antibodies. The method, then:
(§5) FIGS. 8A-8C Illustrate phosphorylation of PDE3A1 and PDE3A2 in response to PKA and PKC activation. HEK293 cells were transfected with FLAG-tagged PDE3A2 and PDE3A1. (A) Prior to lysis and immunoprecipitation with anti-FLAG antibodies, cells were treated with 1 µM isoproterenol for 90 sec or 10 ng/ml PMA for 15 min. (B) The experiment was carried out in cells incubated in the absence and presence of 100 μM IBMX before treatment with 1 µM isoproterenol for 90 sec. (C) FLAG-tagged PDE3A2 and PDE3A1, affinity-purified from transfected cells using anti-FLAG antibodies, were incubated in the absence or presence of 10 or 100 nM PKA and 200 μM ATP for 20 min at 30° C. Phosphorylation was analyzed by Western blotting with phosphospecific antibodies as indicated.
(§6) Furthermore, when affinity-purified FLAG-tagged PDE3A and PDE3A2 were phosphorylated in vitro by PKA, PDE3A2 was phosphorylated more robustly than PDE3A1 at both S312 and S428 (for both isoforms, S312 was phosphorylated more robustly than S428) […].
(§7) Activation of PKC by PMA in transfected HEK293 cells results in selective phosphorylation of PDE3A2 at S428: We compared the effects of PKC activation by PMA on the phosphorylation of FLAG-tagged PDE3A1 and PDE3A2 in transfected HEK293 cells.
(§8) Illustrative immunoprecipitation and immunoblotting: Endogenous or recombinant human PDE3A, its fragments or mutants, endogenous 14-3-3 or GST-14-3-3 proteins were immunoprecipitated by incubation overnight at 4° C. with anti-FLAG(M2)-coupled agarose beads or glutathione sepharose beads. Beads were centrifuged (5,000×g, 1 min) and washed four times with 1 ml buffer containing 20 mM MOPS pH 7.2, 15 mM MgCl2, 0.5% NP40 and 150 mM NaCl. Proteins were subjected to SDS-PAGE (8% polyacrylamide) and electrophoretic transfer to nitrocellulose membranes. Membranes were blocked using 5% nonfat milk in Tris-buffered saline (50 mM Tris pH 7.5, 150 mM NaCl, 0.1% Tween-20) for 1 h at room temperature and incubated with primary and HRP-conjugated secondary antibodies prepared in 5% (w/v) bovine serum albumin. Protein bands were visualized using an enhanced chemiluminescence detection system.
as §4

Assay [3] deals with PDE3A1. Description: Phosphorylation and 14-3-3 binding of FLAG-tagged PDE3A1 in transfected HEK293 cells. In kind it is cell-based, human. The note with it: PMA 10 ng/ml 15 min; for phosphorylation of PDE3A1 at S428 / phosphorylation of PDE3A1 at S312: dibutyryl cAMP 1 mM 1 hour, phosphospecific antibodies. The procedure:
as §5, §6, §7, §8, §4

Assay [4] has as its system PDE3A2. Nature of the assay: Gel-filtration chromatography and two-dimensional analysis of proteins co-immunoprecipitated with PDE3A2 from transfected HEK293 cells. In kind it is cell-based, human. To be noted: 10 ng/ml PMA 15 min; isoelectric focusing and SDS-PAGE. The procedure: FIGS. 5A-5B Illustrate two-dimensional analysis of HEK293 cell proteins co-immunoprecipitated with PDE3A, wherein FLAG-tagged PDE3A1- and PDE3A2-transfected HEK293 cells were treated with 1 μM isoproterenol for 90 sec or 10 ng/ml PMA for 15 min, respectively; untransfected, untreated cells served as controls. PDE3A1 and PDE3A2 were immunoprecipitated with anti-FLAG antibody. PDE3A isoforms and co-immunoprecipitated proteins were eluted with 250 μg/ml of 3×FLAG peptide and submitted to isoelectric focusing followed by SDS-PAGE. Proteins were visualized by silver staining, and spots were quantified and analyzed for inter-gel comparison using PDquest 8.1 software. Experiments were carried out in triplicate, such that (A) Images from one experiment are shown. […]
PKA and PKC modulate the catalytic activity of PDE3A and PDE3A2 through distinct molecular mechanisms: In view of the reported effects of PKA and PKC on PDE3A activity^3-6, we examined the effects of phosphorylation at S312 and S428 on the cAMP-hydrolytic activity of PDE3A isoforms in transfected HEK293 cells. […] To determine whether similar consequences of phosphorylation occur in the case of PDE3A isoforms, protein extracts from transfected HEK293 cells, untreated or exposed to either isoproterenol or PMA, were analyzed by gel-filtration chromatography, measurement of catalytic activity and Western blotting. […]

Assay [5] has as its system PDE3A2. Nature of the assay: cAMP-hydrolytic activity of FLAG-tagged PDE3A2 in transfected HEK293 cells. In kind it is cell-based, human. To be noted: 10 ng/ml PMA 15 min, 1 mM dBcAMP 1 hour. The procedure:
as §1, §2, §3, §4

For assay [6] the following is noted: treatment of dilated cardiomyopathy; cited from earlier work.
The test system of the next assay is PDE3. Description: cAMP-hydrolytic activity in cytosolic and microsomal fractions of human myocardium. The assay is classed as biochemical.
Another assay has as its system 3T3 adipocytes. Nature of the assay: Association of PKB with PDE3B in microsomal fractions of 3T3 adipocytes. In kind it is cell-based. To be noted: not shown. The source says:
The interactions of PKB with PDE3B were examined. Microsomal fractions of 3T3 adipocytes (which express PDE3B) were solubilized with NP-40 and fractionated by gel filtration. […] An association between PKB and PDE3B was confirmed by the ability of anti-PDE3B antibodies to co-immunoprecipitate the two proteins in the PDE3B peak (not shown).

Like-named read-outs stand apart in the source and are kept apart here.

With `CO[C@@H]1[C@@H]2OP(=O)(O)OC[C@H]2O[C@H]1n1c(Sc2ccc(Cl)cc2)nc2c(N)ncnc21` [8-pCPT-2′-O-Me-cAMP], the “cAMP-hydrolytic activity of PDE3A1” value in the assay with PDE3A1 [1] was “not observed”.

Consider `CCCCCCCCCCCCCC(=O)O[C@@H]1[C@@H](C)[C@@]2(O)[C@@H](C=C(CO)C[C@]3(O)C(=O)C(C)=C[C@@H]23)[C@@H]2C(C)(C)[C@]12OC(C)=O` [PMA], for which, in the assay with PDE3A2 [2], the “binding of PDE3A2 to endogenous 14-3-3 (co-immunoprecipitation)” value was “increased binding to endogenous 14-3-3”, the “phosphorylation of PDE3A2 at S312” value is “no increase in phosphorylation at S312” and the “phosphorylation of PDE3A2 at S428” value is “marked increase in phosphorylation at S428”. In the assay on PDE3A1 [3], the “phosphorylation of PDE3A1 at S428” value is “little increase in phosphorylation at S428”. Besides, in the assay with PDE3A1 [3] (isoproterenol 90 sec), the “binding of PDE3A1 to endogenous 14-3-3 (co-immunoprecipitation)” value is listed as “little increase in binding to endogenous 14-3-3” and the “phosphorylation of PDE3A1 at S312” value was “no increase in phosphorylation of S312”. Besides, the “number of proteins co-immunoprecipitated with PDE3A2” value with PDE3A2 [4] is given as “increased the number of proteins that co-immunoprecipitated with PDE3A2”. For the same compound, the “stimulation of cAMP-hydrolytic activity of PDE3A2 with S428A substitution” value in the assay on PDE3A2 [5] is listed as “blocked”. Moreover, the “cAMP-hydrolytic activity of PDE3A2” value in the assay with PDE3A2 [5] (isoproterenol) is “increase in cAMP-hydrolysis”.

Regarding `Nc1cc(-c2ccncc2)c[nH]c1=O` [amrinone], the initial hemodynamic responses result in assay [6] is “favorable hemodynamic responses”.

Turning to `O=C1CCc2cc(OCCCCc3nnnn3C3CCCCC3)ccc2N1` [cilostazol], the “effects on cAMP-hydrolytic activity” value with PDE3 (cytosolic versus microsomal fractions of human myocardium) was “more potent effects in microsomal fractions”.

As for `CCCC(=O)Nc1ncnc2c1ncn2[C@@H]1O[C@@H]2COP(=O)(O)O[C@H]2[C@H]1OC(=O)CCC` [dibutyryl cAMP], in the assay on PDE3A1 [1], the “cAMP-hydrolytic activity of PDE3A1” value is recorded as “stimulation of cAMP-hydrolytic activity”; the “cAMP-hydrolytic activity of PDE3A1 construct with S312A and S428A substitutions” value is reported as “same stimulation of catalytic activity”. In addition, in the assay on PDE3A2 [2], the “phosphorylation of PDE3A2 at S312” value is “phosphorylation at both S312 and S428”; the “phosphorylation of PDE3A2 at S428” value is “phosphorylation at both S312 and S428”. Besides, the “phosphorylation of PDE3A1 at S428” value in the assay on PDE3A1 [3] is “significant increase in the phosphorylation of PDE3A at both S312 and S428”. Moreover, the “phosphorylation of PDE3A1 at S312” value in the assay on PDE3A1 [3] (isoproterenol 90 sec) was “significant increase in the phosphorylation of PDE3A at both S312 and S428”. Also, the “stimulation of cAMP-hydrolytic activity of PDE3A2 with S428A substitution” value with PDE3A2 [5] is given as “similarly blocked by the S428A mutation”.

Consider `Cc1[nH]c(=O)c(C#N)cc1-c1ccncc1` [milrinone], for which the “effects on cAMP-hydrolytic activity” value with PDE3 is reported as “more potent effects in microsomal fractions”.

As for `CCCC(=O)[O-].[Na+]` [sodium butyrate], in the assay with PDE3A1 [1], the “cAMP-hydrolytic activity of PDE3A1” value is on record as “not observed”.

On to “insulin: insulin, used to treat 3T3 adipocytes”, for which the “percentage of PKB co-purifying with PDE3B” value in the assay with 3T3 adipocytes (gel filtration) is given as “appeared to increase the percentage of PKB co-purifying with PDE3B”. Also, the “phosphorylation of PKB” value in the assay with 3T3 adipocytes is recorded as “increased the phosphorylation of PKB”.

Values taken from patent publication US9513288B2, “Isoform-selective inhibitors and activators of PDE3 cyclic nucleotide phosphodiesterases” (The United States of America, as represented by the …, priority 2001, dated 2016).
